Among the data in PubChem BioAssay (NCI) are GI50 and TGI values, retold here.

“And” between values parts separate entries of the source, which are not always exact repeats. Identical values can stand only once.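 Briefly, cells in 96-well plates were exposed to five compound concentrations for 48 h, and endpoints were estimated by linear interpolation. GI50: concentration for 50% inhibition of growth. The concentration for full growth arrest is given as TGI.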

What all share (test): NCI-60 cell line screen, 48 h
Experiment [1] relates to CCRF-CEM leukemia.
Experiment [2] deals with EKVX NSCLC.
Experiment [3] has as its system UO-31 renal.
Experiment [4] relates to M14 melanoma.
In experiment [5] the test system is OVCAR-5 ovarian.
In experiment [6] the test system is SF-295 CNS.
For experiment [7], the system named is OVCAR-4 ovarian.
Experiment [8] relates to RPMI-8226 leukemia.
Experiment [9] relates to SR leukemia.

As to `COc1ccc(CNCCN2C(=O)c3ccc4c5c(ccc(c35)C2=O)C(=O)N(CCNCc2ccc(OC)cc2)C4=O)cc1`, the GI50 in experiment [1] was 227 nM; in experiment [2], 455 nM; in experiment [3], 501 nM; in experiment [4], 169 nM; in experiment [5], 428 nM; in [6], 418 nM. The GI50 in [7] was 122 nM; in experiment [8] it was 487 nM; in experiment [9] it was 220 nM. Moreover, the TGI in experiment [1] worked out at 3290 nM; in experiment [2], 1730 nM; in experiment [3] it was 1980 nM; in experiment [4] it was 348 nM; in [5], 1890 nM; in experiment [6], 1830 nM. Moreover, the figures for the TGI in experiment [7], in experiment [8] and in experiment [9] were 255 nM, 3140 nM and 984 nM, respectively.
As for `COc1cc(C2C3=C(COC3=O)N(CCO)c3cc4c(cc32)OCCO4)cc(OC)c1O` (configuration not stated), the GI50 was 1840 nM in experiment [1]; 3500 nM in [2]; above 16700 nM in experiment [3]; 1430 nM in experiment [4]; 49900 nM in experiment [5]; 1220 nM in experiment [6]. The GI50 in experiment [7] was 3780 nM; in experiment [8], 2180 nM; in [9] it was 1860 nM. In addition, the TGI in experiment [1] is above 50000 nM; in experiment [2], above 50000 nM; in experiment [3], above 50000 nM; in experiment [4], above 21000 nM; in experiment [5] it was above 50000 nM; in experiment [6], 4120 nM. The TGI in experiment [7], in experiment [8] and in experiment [9] was above 50000 nM in each case.
As to `C=CC[n+]1c(/C=C2\Sc3ccccc3N2C)sc(-c2ccccc2)c1-c1ccccc1`, the GI50 in experiment [1] is 353 nM; in experiment [2], 478 nM; in experiment [3], 1610 nM; in experiment [4], 373 nM; in experiment [5], 383 nM; in experiment [6] it was 276 nM. For the same compound, the GI50 was 274 nM in experiment [7], 250 nM in experiment [8] and 353 nM in [9]. Besides, the TGI was 11800 nM in [1]; 12900 nM in [2]; 4400 nM in [3]; 1590 nM in experiment [4]; 12600 nM in experiment [5]; 903 nM in experiment [6]. Also, the TGI in experiment [7] came out at 11900 nM; in [8] it was 987 nM; in experiment [9] it was 1870 nM.
With `COc1cc(OC)cc(-c2n[nH]nc2-c2ccc3c(c2)OCO3)c1`, the GI50 in experiment [1] is 282 nM; in experiment [3], 661 nM; in experiment [4], 94.8 nM; in experiment [5], 1470 nM; in [6] it was 98.9 nM; in experiment [7], 763 nM. Besides, the GI50 in experiment [8] was 326 nM; in [9], 43.6 nM. In addition, the TGI was above 100000 nM in experiment [1]; 72700 nM in [3]; 12000 nM in experiment [4]; above 100000 nM in [5]; 3610 nM in [6]; above 100000 nM in experiment [7]. Further, the figures for the TGI in [8] and in experiment [9] were 22100 nM and 11600 nM, respectively.
Consider `CC(=N\O)/C(C)=N/O.CC(=N\O)/C(C)=N/O.[Pd]`, for which the GI50 was 2040 nM in experiment [1]; 6710 nM in experiment [2]; 3040 nM in [4]; 6470 nM in [5]; above 10000 nM in experiment [6]; 4720 nM in experiment [7]. For the same compound, the GI50 in experiment [8] was 7390 nM; in experiment [9] it was above 10000 nM. In addition, the TGI in experiment [1] was 6130 nM; in experiment [2] it was above 10000 nM; in [4] it was 8550 nM; in [5] it was above 10000 nM; in [6], above 10000 nM; in [7], above 10000 nM. In addition, the TGI in experiment [8] and in [9] was above 10000 nM throughout.
Take `CCCCCc1c(C)[nH]c(/C=C2\N=C(c3ccc[nH]3)C=C2Oc2ccc(OC)cc2)c1C`: the GI50 in experiment [1] was 25.7 nM; in experiment [3], 151 nM and 71.2 nM; in experiment [4], 167 nM and 23.4 nM; in [5], 128 nM and 59.1 nM; in experiment [6], 180 nM and 77.5 nM; in experiment [7] it was 150 nM and 22.1 nM. Also, the GI50 in [8] is 89.6 nM and 31.3 nM; in [9], 32.1 nM and 29.1 nM. Besides, the TGI in experiment [1] was above 100000 nM; in experiment [3], 313 nM and 232 nM; in experiment [4] it was 458 nM and 63.5 nM; in experiment [5], 4560 nM and 2020 nM; in experiment [6], 735 nM and 437 nM; in experiment [7], 2020 nM. Also, the TGI in [8] was 1130 nM and 332 nM.
As to `COc1ccc(-c2ccc(/C=N/n3cnn(CN4CCN(C)CC4)c3=S)o2)c([N+](=O)[O-])c1`, the GI50 in experiment [1] was 11600 nM; in [2] it was 34800 nM; in experiment [3], 83900 nM; in experiment [4], 14200 nM; in experiment [5], 34000 nM; in experiment [7] it was above 100000 nM. Also, the results for the GI50 in [8] and in experiment [9] were 21900 nM and 31500 nM, respectively. The TGI in experiment [1] was 94700 nM; in experiment [2], above 100000 nM; in [3], above 100000 nM; in experiment [4], 60700 nM; in experiment [5], above 100000 nM; in experiment [7], above 100000 nM. For the same compound, the TGI in experiment [8] is 54200 nM; in experiment [9], above 100000 nM.
